Values of other authors, collected in patent US20060116369A1, “Certain compounds, compositions, and methods” (priority 2004, published 2006).

System: A549 cells
Settings: data provided by National Cancer Institute, Developmental Therapeutic Program

Question: Which GI50 does the source give for `O=c1[nH]cc(F)c(=O)[nH]1` [5-fluorouracil] here?
Answer: The GI50 was 1000 nM.

Question: With `COc1cccc2c1C(=O)c1c(O)c3c(c(O)c1C2=O)C[C@@](O)(C(=O)CO)C[C@@H]3O[C@H]1C[C@H](N)[C@H](O)[C@H](C)O1` [doxorubicin] as the compound, how does the GI50 read?
Answer: The GI50 was 63 nM.

Question: For `NC(=O)NO` [hydroxyurea], which GI50 is on record?
Answer: The GI50 was 500000 nM.

Question: Which GI50 does the source give for `CC(=O)O[C@H]1C(=O)[C@@]2(C)[C@H]([C@H](OC(=O)c3ccccc3)[C@]3(O)C[C@H](OC(=O)[C@H](O)[C@@H](NC(=O)c4ccccc4)c4ccccc4)C(C)=C1C3(C)C)[C@]1(OC(C)=O)CO[C@@H]1C[C@@H]2O` [paclitaxel] here?
Answer: Its GI50 is 4 nM.
